# Source: ChEMBL document CHEMBL2380193, “New trifluoromethyl quinolone derivatives: synthesis and investigation of antimicrobial properties” (2013)
# What was measured:
# Aspergillus niger [1] = test: Antifungal activity against Aspergillus niger MTCC 282 assessed as zone of inhibition at 100 ug/ml after 30 hrs by cup plate method; format: functional; conditions: MTCC 282, 30 h, read-out: IZ
# Salmonella typhi [2] = test: Antibacterial activity against Salmonella typhi MTCC 733 assessed as zone of inhibition at 100 ug/ml after 14 hrs by cup plate method; format: functional, Salmonella enterica subsp. enterica serovar Typhi; conditions: Salmonella enterica, MTCC 733, 14 h; read-out: IZ
# Aspergillus flavus [3] = test: Antifungal activity against Aspergillus flavus MTCC 277 after 30 hrs by serial dilution method; format: functional; conditions: MTCC 277, 30 h
# Escherichia coli [4] = test: Antibacterial activity against Escherichia coli MTCC 443 after 14 hrs by serial dilution method; format: functional; conditions: MTCC 443, 14 h
# Klebsiella pneumoniae [5] = test: Antibacterial activity against Klebsiella pneumoniae MTCC 432 after 14 hrs by serial dilution method; format: functional; conditions: MTCC 432, 14 h
# Aspergillus fumigatus [6] = test: Antifungal activity against Aspergillus fumigatus MTCC 343 after 30 hrs by serial dilution method; format: functional; conditions: MTCC 343, 30 h
# Staphylococcus aureus [7] = test: Antibacterial activity against Staphylococcus aureus MTCC 096 assessed as zone of inhibition at 100 ug/ml after 14 hrs by cup plate method; format: functional; conditions: MTCC 096, 14 h, read-out: IZ
# Bacillus subtilis [8] = test: Antibacterial activity against Bacillus subtilis MTCC 441 after 14 hrs by serial dilution method; format: functional; conditions: MTCC 441, 14 h
# Escherichia coli [9] = test: Antibacterial activity against Escherichia coli MTCC 443 assessed as zone of inhibition at 100 ug/ml after 14 hrs by cup plate method; format: functional; conditions: MTCC 443, 14 h, read-out: IZ
# Candida albicans [10] = test: Antifungal activity against Candida albicans MTCC 227 assessed as zone of inhibition at 100 ug/ml after 30 hrs by cup plate method; format: functional; conditions: MTCC 227, 30 h, read-out: IZ
# Aspergillus flavus [11] = test: Antifungal activity against Aspergillus flavus MTCC 277 assessed as zone of inhibition at 100 ug/ml after 30 hrs by cup plate method; format: functional; conditions: MTCC 277, 30 h, read-out: IZ
# Aspergillus fumigatus [12] = test: Antifungal activity against Aspergillus fumigatus MTCC 343 assessed as zone of inhibition at 100 ug/ml after 30 hrs by cup plate method; format: functional; conditions: MTCC 343, 30 h, read-out: IZ
# Staphylococcus aureus [13] = test: Antibacterial activity against Staphylococcus aureus MTCC 096 after 14 hrs by serial dilution method; format: functional; conditions: MTCC 096, 14 h
# Klebsiella pneumoniae [14] = test: Antibacterial activity against Klebsiella pneumoniae MTCC 432 assessed as zone of inhibition at 100 ug/ml after 14 hrs by cup plate method; format: functional; conditions: MTCC 432, 14 h, read-out: IZ
# Salmonella typhi [15] = test: Antibacterial activity against Salmonella typhi MTCC 733 after 14 hrs by serial dilution method; format: functional, Salmonella enterica subsp. enterica serovar Typhi; conditions: Salmonella enterica, MTCC 733, 14 h
# Aspergillus niger [16] = test: Antifungal activity against Aspergillus niger MTCC 282 after 30 hrs by serial dilution method; format: functional; conditions: MTCC 282, 30 h
# Candida albicans [17] = test: Antifungal activity against Candida albicans MTCC 227 after 30 hrs by serial dilution method; format: functional; conditions: MTCC 227, 30 h
# Bacillus subtilis [18] = test: Antibacterial activity against Bacillus subtilis MTCC 441 assessed as zone of inhibition at 100 ug/ml after 14 hrs by cup plate method; format: functional; conditions: MTCC 441, 14 h, read-out: IZ
SMILES,zone of inhibition at 100 µg/mL (Aspergillus niger [1]),zone of inhibition at 100 µg/mL (Salmonella typhi [2]),MIC (Aspergillus flavus [3]),MIC (Escherichia coli [4]),MIC (Klebsiella pneumoniae [5]),MIC (Aspergillus fumigatus [6]),zone of inhibition at 100 µg/mL (Staphylococcus aureus [7]),MIC (Bacillus subtilis [8]),zone of inhibition at 100 µg/mL (Escherichia coli [9]),zone of inhibition at 100 µg/mL (Candida albicans [10]),zone of inhibition at 100 µg/mL (Aspergillus flavus [11]),zone of inhibition at 100 µg/mL (Aspergillus fumigatus [12]),MIC (Staphylococcus aureus [13]),zone of inhibition at 100 µg/mL (Klebsiella pneumoniae [14]),MIC (Salmonella typhi [15]),MIC (Aspergillus niger [16]),MIC (Candida albicans [17]),zone of inhibition at 100 µg/mL (Bacillus subtilis [18])
O=C1c2ccccc2C(=O)N1CCCCn1c(C(F)(F)F)cc(=O)c2ccccc21,13 mm,< 10 mm,25 µg/mL,50 µg/mL,12.5 µg/mL,25 µg/mL,13 mm,12.5 µg/mL,< 10 mm,17 mm,< 10 mm,< 10 mm,12.5 µg/mL,13 mm,25 µg/mL,12.5 µg/mL,6.25 µg/mL,12 mm
O=C1c2ccccc2C(=O)N1CCCCn1c(C(F)(F)F)cc(=O)c2cc(F)ccc21,17 mm,13 mm,25 µg/mL,50 µg/mL,12.5 µg/mL,12.5 µg/mL,15 mm,12.5 µg/mL,< 10 mm,17 mm,< 10 mm,12 mm,6.25 µg/mL,13 mm,12.5 µg/mL,6.25 µg/mL,6.25 µg/mL,13 mm
Cc1ccc2c(c1)c(=O)cc(C(F)(F)F)n2CCCCN1C(=O)c2ccccc2C1=O,12 mm,13 mm,12.5 µg/mL,25 µg/mL,12.5 µg/mL,25 µg/mL,15 mm,6.25 µg/mL,< 10 mm,15 mm,12 mm,< 10 mm,6.25 µg/mL,13 mm,12.5 µg/mL,12.5 µg/mL,6.25 µg/mL,15 mm
COc1ccc2c(c1)c(=O)cc(C(F)(F)F)n2CCCCN1C(=O)c2ccccc2C1=O,12 mm,< 10 mm,25 µg/mL,50 µg/mL,6.25 µg/mL,25 µg/mL,16 mm,12.5 µg/mL,< 10 mm,15 mm,< 10 mm,< 10 mm,6.25 µg/mL,16 mm,25 µg/mL,12.5 µg/mL,6.25 µg/mL,13 mm
